Test results as given in patent US20210038732A1, “ANTICANCER MICRORNA AND LIPID FORMULATIONS THEREOF” (INTERNA TECHNOLOGIES B.V., priority 2018, published 2021).

Columns and labels:
[1] = system: 3′ untranslated regions (UTR) of NT5E (CD73); assay: 3′UTR luciferase assay in Hela cells; type: cell-based; conditions: 10 nM
Experimental: Firefly luciferase reporter constructs containing the 3′ untranslated regions (UTR) of NT5E (CD73) were transfected in Hela cells along with 10 nM miRNA-193a-3p or a scrambled control. Cell extracts were prepared 24 hours after transfection, and luciferase activity was measured using the Dual Luciferase Reporter Assay System (Promega). If the 3′UTR is a target of the miRNA, miRNA will interact with 3′UTR and provides lower luciferase signal.

[2] = system: A549, H460; assay: Caspase 3/7 apoptosis assay; type: cell-based, human; conditions: 10 nM, normalized to mock
Experimental: (§1) Depending on cancer cell type 3000-6000 cells were seeded in a 96 well plate. After cells attached, they were transfected with different concentrations of miRNA-193a and apoptosis induction was measured at different time points. This assay was performed using Promega kit. 100 uL of caspase reagent was added to 100 uL of media in each well in 96-well plate and incubated for 2 hours in the dark at room temperature. The luminescent signal was read on a luminescent plate reader.
(§2) Different biological effects of miRNA-193a-3p have been tested in various cancer cell lines (see Table 13). For this, various cells were treated with miRNA-193a at different concentrations (1, 3, 10 nM). For all experiments controls (untreated, mock and scrambled) were measured. All assays were performed at 24h, 48h and 72h time points. Data shown in Table 13 are the results for miRNA-193a at 10 nM concentration at indicated time points. All the results have been quantified and normalized to the mock control.
(§3) miRNA-193a treatment in various cancer cell lines decreased cell viability over time as measured by either an MTS assay or by cell count. It enhanced apoptosis induction over time as measured by a caspase 3/7 apoptosis assay. […] It is of note that due to intrinsic characteristics and gene mutation status of each cell line, performing one method to detect apoptosis is not always ideal for all cell lines.

[3] = system: A2058; assay: Caspase 3/7 apoptosis assay; type: cell-based, human; conditions: 10 nM, normalized to mock
Experimental: as §1, §2, §3

[4] = system: HeP3B, SNU449; assay: Caspase 3/7 apoptosis assay; type: cell-based, human; conditions: 10 nM, normalized to mock
Experimental: as §1, §2, §3

[5] = system: Huh7; assay: Caspase 3/7 apoptosis assay; type: cell-based, human; conditions: 10 nM, normalized to mock
Experimental: as §1, §2, §3

[6] = system: 4T1 tumor microenvironment; assay: FACS analysis of immune cells in orthotopic 4T1 tumors (Example 4.4); type: in vivo, mice
Experimental: Freshly isolated orthotopic 4T1 tumors were prepared for FACS analysis on day 5 (week 1) and day 12 (week 2) post miRNA-193a treatment when they reached a min tumor volume (TV) of 300 mm^3. Tumor samples were digested using murine tumor dissociation kit from Miltenyi (CAT #130-096-730). Following tumor cell digestion cells were re-suspended in 200 μl staining buffer with […] Fc-Block (Mouse BD Fc Block™ CAT #553141) and incubated at 4° C. for 15 minutes in the dark. Different markers (CD45, CD3, CD4, CD8, FoxP3, CD335, F4/80, CD11b, Gr-1, CD73, LAG3/CD223, IL-2, IFN-r, PD-1, L/D stain) have been used for FACS analysis. Antibody mixture for all markers except IL-2, IFN-r and LAG3 were diluted in Fc blocking buffer for each sample and stained for 30 min on ice, in the dark. Then, cells were gently washed by adding 2 ml of ice cold PBS to each tube. Each tube was centrifuged at 300 g for 5 minutes and supernatant was discarded. To detect intracellular markers (IL-2, IFN-r and LAG3) stimulation of the digested cells was performed. To do so, Leukocyte Activation Cocktail, with BD GolgiPlug™ was used. The cocktail was thawed at 37° C. in a water bath rapidly and for every 1 mL of cell culture (e.g., ˜10^6 cells/mL) 2 μL of cocktail was added and mixed thoroughly. To stimulate, cell culture mix was placed in a 37° C. humidified CO2 incubator for 4-6 hr. Then the cells were harvested and washed with FACS staining buffer. For staining, cell pellet was resuspended with pulse vortex and 200 ul of prepared Fixation/Permeabilization was added to each sample. Samples were incubated for 10 min at RT in the dark. Then, samples were washed twice by adding 1 ml of 1× Permeabilization Buffer (made from 10× Permeabilization Buffer, diluted with distilled H2O) followed by centrifugation and decanting of supernatant and each sample was incubated with the antibody cocktail containing FoxP3, IFN-r and IL-2 in 1× Permeabilization Buffer and incubated at RT for 30 minutes in the dark. Finally, cells were resuspended in […] of staining Buffer and analyzed on cytometer. The data was analysed by Kaluza flow cytometry software (from Beckman Coulter).
Six to eight weeks old female BALB/c mice (Shanghai Lingchang Bio-Technology Co. Ltd, Shanghai, China) were injected with 3×10^5 4T1 mouse tumor cells in PBS (0.1 mL/mouse) into the mammary fat pad. At the time of randomization, the TVs ranged between 69.9 and 173.9 mm3 (median 105.7, IQR=100.7-125.4). Body weights and TVs (caliper measurements) were determined 2-3 times/week. After randomization (day 9 after tumor inoculation) mice received different treatments under different dosing regimen (see Table 9 for dosing scheme). For all groups, 4 mice are sacrificed 48h after the 2nd miRNA-193a injection in the first week and in the 2nd week. Primary tumors were surgically removed from the mammary fat pad on day 20 after inoculation. After a recovery period of 3 days, treatment was resumed for 6 more weeks until day 63. Re-growth of (distant) tumors was monitored in addition to BW, and mice were sacrificed if end-points were met.

With “miRNA-193a: duplex of the miRNA-193a-3p of SEQ ID NO: 218 (mimic, sense) with antisense strand SEQ ID NO: 219; naked in vitro, formulated in vivo (sense UGGGACUUUGUAGGCCAGUUTT; antisense AACUGGCCUACAAAGUCCCAGU; chemistry not given here; listed as Homo sapiens)” the “Luciferase activity of reporter construct containing mutated form of the CD73 3′UTR” value [1] was “did not affect the luciferase activity”, the “Luciferase activity of reporter construct containing NT5E 3′UTR region” value ([1]; vs mock and scrambled controls) was “downregulation of the activity” and the “Apoptosis (48/72 h)” value [2] was “↑↑ (Induction > 2x)”. The “Apoptosis (48/72 h)” value [3] was “↑↑ (Induction > 2x)”, the “Apoptosis (48/72 h)” value [4] was “↑ (Induction < 2x)” and the “Apoptosis (48/72 h)” value [5] was “↑ (Induction < 2x)”. For the same substance, the “Ratio of CD8+ T cells/Treg cells” value ([6]; 2 weeks post start of treatment, 10 mg/kg BIW iv, diamino lipid nanoparticles) was greater than 1, the “Regulatory T cell population (FOXP3+/LAG3+)” value ([6]; after 1 week) was “significant decrease” and the “T-cell function (production of IFNγ and IL-2)” value ([6]; after 1 week, CD45+ tumor cell population) was “significant increase”. For the same substance, the “Regulatory T cell population (FOXP3+/LAG3+)” value ([6]; after 2 weeks) was “significant decrease”, the “T-cell frequency (CD8+)” value ([6]; after 2 weeks) was “significant increase” and the “T-cell function (IFNγ)” value ([6]; after 2 weeks) was “mild induction”. The “CD73 (NT5E) expression level in immune cells” value ([6]; week 1 and week 2, 48h after administration) was “down-regulated”.
